In patent US20120015957A1, “PIPERAZINYL DERIVATIVES USEFUL AS MODULATORS OF THE NEUROPEPTIDE Y2 RECEPTOR” (priority 2007, published 2012):

molecular target: T1, NPY Y2 receptor (Homo sapiens, UniProt P49146); experiment: Neuropeptide Y2 radioligand binding assay ([125I]PYY, KAN-Ts cell membranes); conditions: membranes of KAN-Ts cells endogenously expressing Y2 receptors; [125I]PYY 80 pM; 1 h at rt; read-out: IC50 (μM), NPY Y2 binding
T1 construct: endogenous in cells; host or cells: KAN-Ts cells (membrane preparation)
T1 sequence (P49146 1-381): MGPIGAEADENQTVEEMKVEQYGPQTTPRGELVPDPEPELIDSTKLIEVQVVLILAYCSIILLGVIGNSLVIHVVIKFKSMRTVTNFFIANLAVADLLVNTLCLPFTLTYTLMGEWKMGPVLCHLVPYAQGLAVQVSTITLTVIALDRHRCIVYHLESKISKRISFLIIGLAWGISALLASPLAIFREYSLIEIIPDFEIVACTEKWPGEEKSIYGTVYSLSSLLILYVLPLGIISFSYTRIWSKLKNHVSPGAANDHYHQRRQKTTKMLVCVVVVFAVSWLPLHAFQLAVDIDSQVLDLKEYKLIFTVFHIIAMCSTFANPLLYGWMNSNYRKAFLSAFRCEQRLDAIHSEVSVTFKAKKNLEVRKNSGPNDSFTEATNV
Method: KAN-Ts endogenously expressing Y2 receptors were used for the radioligand binding assay. Cells were grown to confluence on 150 cm^2 tissue culture plates, washed with phosphate-buffered saline (PBS), and scraped into 50 mL tubes. After centrifugation, the supernatant was aspirated, and the pellets frozen and stored at −80° C. Thawed pellets were homogenized with a polytron tissue grinder for 15 sec in 20 mM Tris-HCl, 5 mM EDTA. The homogenate was centrifuged at 800×g for 5 min and the collected supernatant was recentrifuged at 25000×g for 25 min. The resulting pellet was resuspended in binding buffer (20 mM HEPES, 120 mM NaCl, 0.22 mM KH2PO4, 1.3 mM CaCl2, 0.8 mM MgSO4). Membranes were incubated with [^125I]PYY (80 pM) in the presence or absence of test compound for 1 h at rt. The reaction was stopped by filtration through GF/C filter plates pre-soaked in 0.3% polyethylenimine and subsequently washed with Tris 50 mM, 5 mM EDTA buffer. Plates were dried for 1 h in a 55° C. oven, scintillation fluid was added and the radioactivity was counted in a Packard TopCount. Specific binding to the NPY receptor subtypes was determined by radioactivity that was bound in the presence of […] NPY. Each binding experiment was repeated three to eight times, each in duplicate. IC50 values (i.e. concentration of unlabelled peptide or antagonist required to compete for 50% of specific binding to the radioligand) were determined using the GraphPad Prism software (GraphPad Software Inc., San Diego Calif.) with a fit to a sigmoidal dose response curve. Apparent K values were as K=IC50/(1+C/KD), where C is concentration of the radioligand.

| IC50 | Compound |
| --- | --- |
| 0.37 µM | CC[C@H](C)c1nc(-c2ccc(N3CCN(C(C(=O)N(CC)CC)c4ccccc4)CC3)c(F)c2)no1 (stereo in doubt) [Compound 97, 2-{4-[4-(5-sec-Butyl-[1,2,4]oxadiazol-3-yl)-2-fluoro-phenyl]-piperazin-1-yl}-N,N-diethyl-2-phenyl-acetamide] |
| 0.097 µM | CCc1noc(-c2ccc(N3CCN(C(C(=O)N(CC)CC)c4ccccc4)CC3)c(F)c2)n1 (stereo not shown) [Compound 71, N,N-Diethyl-2-{4-[4-(3-ethyl-[1,2,4]oxadiazol-5-yl)-2-fluoro-phenyl]-piperazin-1-yl}-2-phenyl-acetamide] |
| 6.3 µM | CCN(CC)C(=O)C(c1ccccc1)N1CCN(c2ccc(-c3noc(CC(C)(C)C)n3)cc2F)CC1 (stereo not shown) [Compound 79, 2-(4-{4-[5-(2,2-Dimethyl-propyl)-[1,2,4]oxadiazol-3-yl]-2-fluoro-phenyl}-piperazin-1-yl)-N,N-diethyl-2-phenyl-acetamide] |
| 0.85 µM | CCN(CC)C(=O)C(c1ccccc1)N1CCN(c2ccc(-c3noc(C4CCC4)n3)cc2F)CC1 (stereo not shown) [Compound 89, 2-{4-[4-(5-Cyclobutyl-[1,2,4]oxadiazol-3-yl)-2-fluoro-phenyl]-piperazin-1-yl}-N,N-diethyl-2-phenyl-acetamide] |
| 0.18 µM | CCN(CC)C(=O)C(c1ccccc1)N1CCN(c2ccc(-c3noc(C(F)(F)F)n3)cc2F)CC1 (stereo not shown) [Compound 118, N,N-Diethyl-2-{4-[2-fluoro-4-(5-trifluoromethyl-[1,2,4]oxadiazol-3-yl)-phenyl]-piperazin-1-yl}-2-phenyl-acetamide] |
| 1 µM | CCN(CC)C(=O)C(c1ccccc1)N1CCN(c2ccc(C3=N[C@H](C(=O)OC)CO3)cc2F)CC1 (stereo partly shown) [Compound 124, 2-{4-[4-(Diethylcarbamoyl-phenyl-methyl)-piperazin-1-yl]-3-fluorophenyl}-4,5-dihydro-oxazole-4-carboxylic acid methyl ester] |

The remaining lines, values behind:

| Compound | IC50 |
| --- | --- |
| CCc1nc(-c2ccc(N3CCN(C(C(=O)N(CC)CC)c4ccccc4)CC3)c(F)c2)no1 (stereo not shown) [Compound 3, N,N-Diethyl-2-{4-[4-(5-ethyl-[1,2,4]oxadiazol-3-yl)-2-fluoro-phenyl]-piperazin-1-yl}-2-phenyl-acetamide] | 0.24 µM |
| CCCc1nc(-c2ccc(N3CCN(C(C(=O)N(CC)CC)c4ccccc4)CC3)c(F)c2)no1 (stereo not shown) [Compound 68, N,N-Diethyl-2-{4-[2-fluoro-4-(5-propyl-[1,2,4]oxadiazol-3-yl)-phenyl]-piperazin-1-yl}-2-phenyl-acetamide] | 0.52 µM |
| CCC(CC)c1nc(-c2ccc(N3CCN(C(C(=O)N(CC)CC)c4ccccc4)CC3)c(F)c2)no1 (stereo not shown) [Compound 70, N,N-Diethyl-2-(4-{4-[5-(1-ethyl-propyl)-[1,2,4]oxadiazol-3-yl]-2-fluoro-phenyl}-piperazin-1-yl)-2-phenyl-acetamide] | 0.48 µM |
| CCN(CC)C(=O)C(c1ccccc1)N1CCN(c2ccc(-c3noc(C(C)(C)C)n3)cc2F)CC1 (stereo not shown) [Compound 75, 2-{4-[4-(5-tert-Butyl-[1,2,4]oxadiazol-3-yl)-2-fluoro-phenyl]-piperazin-1-yl}-N,N-diethyl-2-phenyl-acetamide] | 0.6 µM |
| CCN(CC)C(=O)C(c1ccccc1)N1CCN(c2ccc(-c3nc(C(C)C)no3)cc2F)CC1 (stereo not shown) [Compound 80, N,N-Diethyl-2-{4-[2-fluoro-4-(3-isopropyl-[1,2,4]oxadiazol-5-yl)-phenyl]-piperazin-1-yl}-2-phenyl-acetamide] | 0.041 µM |
| CCN(CC)C(=O)C(c1ccccc1)N1CCN(c2ccc(-c3noc(C4CC4)n3)cc2F)CC1 (stereo not shown) [Compound 88, 2-{4-[4-(5-Cyclopropyl-[1,2,4]oxadiazol-3-yl)-2-fluoro-phenyl}-piperazin-1-yl]-N,N-diethyl-2-phenyl-acetamide] | 0.27 µM |
| CCN(CC)C(=O)C(c1ccccc1)N1CCN(c2ccc(-c3noc(CF)n3)cc2F)CC1 (stereo not shown) [Compound 105, N,N-Diethyl-2-{4-[2-fluoro-4-(5-fluoromethyl-[1,2,4]oxadiazol-3-yl)-phenyl]-piperazin-1-yl}-2-phenyl-acetamide] | 0.16 µM |
